In ChEMBL document CHEMBL1152028, “The synthesis of 8,8-disubstituted tricyclic analogs of artemisinin” (Bioorg Med Chem Lett, 1997):
In brackets after ≈: the same amount, converted by molar mass.

Each molecule was assayed on Plasmodium falciparum (assay: In vitro inhibition of Plasmodium falciparum W2).
Assay type: functional, organism-based

Row | SMILES | IC50 [µg/mL]
1 | C[C@@]12CC[C@H]3CC[C@](C)(c4ccccc4)C[C@]3(CO1)OO2 | 0.013 (≈ 0.0451 µM)
2 | C[C@@]12CC[C@H]3CC[C@@](C)(c4ccccc4)C[C@]3(CO1)OO2 | 0.132 (≈ 0.458 µM)
3 | C[C@@H]1CC[C@H]2[C@@H](C)C(=O)O[C@@H]3O[C@@]4(C)CC[C@@H]1[C@]32OO4 [ARTEMISININ] | 0.0042 (≈ 0.0149 µM)
